Measurements taken from patent US8044047B2, “5-substituted benzoxazines” (Hoffman-La Roche Inc., priority 2008, dated 2011).

Molecular target: T1, recombinant human 5-HT5A receptor (Homo sapiens, UniProt P47898)
T1 construct: expressed in transfected cells; host or cells: HEK-EBNA (Human Embryonic Kidney-EBNA) cells, transient cDNA expression; membranes
Experiment: [3H]LSD radioligand binding assay, membranes of HEK-EBNA cells transiently expressing 5-HT5A receptors
Conditions: [3H]LSD approx. 1 nM, SPA beads, 120 min at room temperature; Ki from IC50 by the Cheng-Prussoff equation
Experimental: A [^3H]LSD radioligand binding assay was used to determine the affinity of the compounds for the recombinant human 5-HT5A receptor, in membranes from transiently (cDNA) expressed 5-HT5A receptors in Human Embryonic Kidney-EBNA (HEK-EBNA) cells. Assay buffer consisted of Tris (50 mM) buffer containing 1 mM EGTA, 10 mM MgCl2 (pH 7.4) and 10 μM pargyline. The binding assay was carried out in 96-well-plates in the presence of [^3H]LSD (approximately 1 nM), approximately 2 μg/well of membrane protein, and 0.5 mg of Ysi-poly-1-lysine SPA beads in a final volume of 200 μl of buffer. Non-specific binding was defined using methiothepin 2 μM. Compounds were tested at 10 concentrations. All assays were conducted in duplicate and repeated at least two times. Assay plates were incubated for 120 min at room temperature before centrifugation. Bound ligand was determined using a Packard Topcount scintillation counter. IC50 values were calculated using a non-linear curve fitting program and Ki values calculated using the Cheng-Prussoff equation.

T1 sequence (P47898 whole entry): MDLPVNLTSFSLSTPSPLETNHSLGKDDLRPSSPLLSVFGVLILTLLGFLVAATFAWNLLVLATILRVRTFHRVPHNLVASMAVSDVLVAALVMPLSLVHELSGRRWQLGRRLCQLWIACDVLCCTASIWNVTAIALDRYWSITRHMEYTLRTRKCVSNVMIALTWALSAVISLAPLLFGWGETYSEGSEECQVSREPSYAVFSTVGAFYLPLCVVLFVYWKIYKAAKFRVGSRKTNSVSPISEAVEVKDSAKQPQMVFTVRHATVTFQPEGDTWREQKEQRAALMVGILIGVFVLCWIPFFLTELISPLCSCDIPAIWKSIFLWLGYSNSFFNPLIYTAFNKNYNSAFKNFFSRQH

| Ki | Structure (SMILES) |
| --- | --- |
| 57 nM | Clc1cccc2c1COC(N[C@@H]1CCc3ccccc31)=N2 [Example 1, (5-Chloro-4H-benzo[d][1,3]oxazin-2-yl)-(R)-indan-1-yl-amine] |
| 169 nM | O=[N+]([O-])c1cccc2c1COC(N[C@@H]1CCc3ccccc31)=N2 [Example 2, (R)-Indan-1-yl-(5-nitro-4H-benzo[d][1,3]oxazin-2-yl)-amine] |
| 3 nM | Nc1cccc2c1COC(N[C@@H]1CCc3ccccc31)=N2 [Example 3, (R)—N^2-Indan-1-yl-4H-benzo[d][1,3]oxazine-2,5-diamine] |
| 27 nM | COc1cccc2c1C(NC1=Nc3cccc(N)c3CO1)CO2 (stereo not drawn) [Example 4, N^2-(4-Methoxy-2,3-dihydro-benzofuran-3-yl)-4H-benzo[d][1,3]oxazine-2,5-diamine] |
| 131 nM | O=C(Cc1ccc(Cl)cc1)Nc1cccc2c1COC(N[C@@H]1CCc3ccccc31)=N2 [Example 5, 2-(4-Chloro-phenyl)-N-[2-((R)-indan-1-ylamino)-4H-benzo[d][1,3]oxazin-5-yl]-acetamide] |
| 2 nM | O=S(=O)(Nc1cccc2c1COC(N[C@@H]1CCc3ccccc31)=N2)c1cc(F)cc(F)c1 [Example 6, 3,5-Difluoro-N-[2-((R)-indan-1-ylamino)-4H-benzo[d][1,3]oxazin-5-yl]-benzenesulfonamide] |
| 10 nM | COc1cccc2c1C(NC1=Nc3cccc(NS(=O)(=O)c4cc(F)cc(F)c4)c3CO1)CO2 (stereo not drawn) [Example 7, 3,5-Difluoro-N-[2-(4-methoxy-2,3-dihydro-benzofuran-3-ylamino)-4H-benzo[d][1,3]oxazin-5-yl]-benzenesulfonamide] |
| 2 nM | O=S(=O)(Nc1cccc2c1COC(N[C@@H]1CCc3ccccc31)=N2)C1CC1 [Example 8, Cyclopropanesulfonic acid [2-((R)-indan-1-ylamino)-4H-benzo[d][1,3]oxazin-5-yl]-amide] |
| 106 nM | Brc1cccc2c1COC(N[C@@H]1CCc3ccccc31)=N2 [Example 9, (5-Bromo-4H-benzo[d][1,3]oxazin-2-yl)-(R)-indan-1-yl-amine] |
| 5 nM | CS(=O)(=O)Nc1cccc2c1COC(N[C@@H]1CCc3ccccc31)=N2 [Example 10, N-[2-((R)-Indan-1-ylamino)-4H-benzo[d][1,3]oxazin-5-yl]-methanesulfonamide] |
| 118 nM | N#Cc1cccc2c1COC(N[C@@H]1CCc3ccccc31)=N2 [Example 11, 2-((R)-Indan-1-ylamino)-4H-benzo[d][1,3]oxazine-5-carbonitrile] |
| 13 nM | c1ccc2c(c1)CC[C@H]2NC1=Nc2cccc(C3CC3)c2CO1 [Example 12, (5-Cyclopropyl-4H-benzo[d][1,3]oxazin-2-yl)-(R)-indan-1-yl-amine] |
| 78 nM | Fc1ccc(-c2cccc3c2COC(N[C@@H]2CCc4ccccc42)=N3)cc1 [Example 13, [5-(4-Fluoro-phenyl)-4H-benzo[d][1,3]oxazin-2-yl]-(R)-indan-1-yl-amine] |
| 3 nM | Fc1ccc(Nc2cccc3c2COC(N[C@@H]2CCc4ccccc42)=N3)cc1 [Example 14, N^5-(4-Fluoro-phenyl)-N^2—(R)-indan-1-yl-4H-benzo[d][1,3]oxazine-2,5-diamine] |
| 2 nM | Clc1ccc(Nc2cccc3c2COC(N[C@@H]2CCc4ccccc42)=N3)cc1 [Example 15, N^5-(4-Chloro-phenyl)-N^2—(R)-indan-1-yl-4H-benzo[d][1,3]oxazine-2,5-diamine] |
